Measured values: patent US20140336184A1, “METHOD TO ENHANCE COGNITION” (priority 2011, published 2014)

Key:
[1] = molecular target: T1, PKR (Homo sapiens, UniProt P19525); conditions: final concentration of 1 μM (Page et al., 2006; Wang et al., 2007); cited from earlier work
[2] = molecular target: T2, PKR (Rattus norvegicus, UniProt Q63184); conditions: dose of 0.1 mg/kg i.p. (Ingrand et al., 2007); cited from earlier work
T2 sequence (Q63184 1-513): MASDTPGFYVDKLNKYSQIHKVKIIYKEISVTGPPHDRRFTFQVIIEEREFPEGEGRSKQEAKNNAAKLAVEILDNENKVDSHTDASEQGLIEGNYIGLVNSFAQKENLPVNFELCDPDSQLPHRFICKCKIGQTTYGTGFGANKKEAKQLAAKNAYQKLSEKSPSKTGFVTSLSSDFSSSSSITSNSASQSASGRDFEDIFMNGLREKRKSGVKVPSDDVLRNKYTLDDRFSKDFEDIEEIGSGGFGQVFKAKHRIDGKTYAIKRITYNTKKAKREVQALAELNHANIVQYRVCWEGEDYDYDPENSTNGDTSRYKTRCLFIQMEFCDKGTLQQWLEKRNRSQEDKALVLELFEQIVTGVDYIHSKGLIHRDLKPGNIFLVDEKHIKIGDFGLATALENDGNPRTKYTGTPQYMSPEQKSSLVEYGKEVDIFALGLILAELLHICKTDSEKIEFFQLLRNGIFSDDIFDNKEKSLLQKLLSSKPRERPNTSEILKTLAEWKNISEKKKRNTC

[3] = system: WT mice; assay: Contextual and auditory fear conditioning; type: in vivo, mouse; conditions: PKRi 0.1 mg/kg i.p. immediately after training, n=8
Experimental: The experimenter was blind to the genotype for all behavioral tests. Fear conditioning was performed as previously described (Costa-Mattioli et al., 2007). Mice were first handled for 3-5 min for 3 days and then habituated to the conditioning chamber for 20 min for another 3 days. On the training day, after 2 min in the conditioning chamber, mice received a pairing of a tone (2800 Hz, 85 db, 30 s) with a co-terminating foot-shock (0.35 mA, 1 s), after which they remained in the chamber for two additional min and then were returned to their home cages. Mice were tested 24 hr after training for “freezing” (immobility with the exception of respiration) in response to the tone (in a chamber to which they had not been conditioned) and to the training context (training chamber).
During testing for auditory fear conditioning, mice were placed in the chamber and freezing responses were recorded during the initial 2 min (pre-CS period) and during the last 3 min when the tone was played. Mice were returned to their cages 30 s after the end of the tone. […] For extinction trials, freezing in response to the conditioned context was assessed for 5 min, 24 hr, 48 hr, 72 hr and 96 hr after training and normalized to the amount of freezing obtained at 24 hr. For all tests, freezing behavior was determined at 5 s intervals during a 5 min period. […]

[4] = system: adult WT mice; assay: Video EEG recordings in freely moving mice; type: in vivo, mouse
Excerpt: Pkr knockout (Pkr^−/−) mice (Abraham et al., 1999) were back-crossed for at least eight generations to 129SvEv mice. Mice were weaned at the third postnatal week and genotyped by PCR. Briefly, the mutant and corresponding WT alleles are detected by a four-primer PCR assay in which Oligo-1 (5′-GGAACITrGGAGCAATGGA-3′) and Oligo-2 (5′-[…]-3′) give a WT band of 225 base-pair fragment and Oligo-3 (5′-TGTTCTGTGGCTATCAGGG-3′) and Oligo-4 (5′-[…]-3′) give a 432 base-pair fragment from the deleted allele. eIF2α^+/S51A mice were previously described (Costa-Mattioli et al., 2007; Scheuner et al., 2001). All experiments were performed on 8-16 weeks old males. The mice were kept on a 12 h light/dark cycle, and the behavioral experiments were always conducted during the light phase of the cycle. The mice had access to food and water ad libitum, except during tests. […]
PKRi (Calbiochem, San Diego), a potent ATP-binding-site-directed inhibitor of PKR which blocks PKR autophosphorylation (Jammi et al., 2003; Shimazawa and Hara, 2006), was prepared as a 20 mM stock solution in DMSO (dimethyl sufloxide). PKRi was freshly dissolved in saline and then injected intraperitoneally (i.p.) at a dose of 0.1 mg/kg and the EEG was recorded 1 hr after injection. A digital video camera simultaneously monitored behavior during the EEG recordings. […]

[5] = system: hippocampal slices from WT mice; assay: Field recording (population spikes, fEPSPs) in CA1 of hippocampal slices; type: cell-based, mouse
Experimental: Field recording: horizontal hippocampal slices ([…]) were cut from brains of WT or age-matched Pkr^−/− littermates in 4° C. artificial cerebrospinal fluid (ACSF) and kept in ACSF at room temperature for at least one hr before recording, as described (Zhu et al., 2005). Slices were maintained in an interface-type chamber perfused with oxygenated ACSF (95% O2 and 5% CO2) containing in mM: 124 NaCl, 2.0 KCl, 1.3 MgSO4, 2.5 CaCl2, 1.2 KH2PO4, 25 NaHCO3, and 10 glucose (2-3 ml/min). Bipolar stimulating electrodes were placed in the CA1 stratum radiatum to stimulate Schaffer collateral and commissural fibers. Field potentials were recorded using ACSF-filled micropipettes at 28-29° C. The recording electrodes were placed in the stratum radiatum for field excitatory postsynaptic potentials (fEPSPs), and stratum pyramidale for population spikes. The stimulus strength of the 0.1 ms pulses was adjusted to evoke 30-35% of maximum response for fEPSPs, and 50% of maximal response for population spikes. A stable baseline of responses was established for at least 30 min at 0.033 Hz. Tetanic LTP was induced by high-frequency stimulation in brief trains (100 Hz, 1 s), applied either as a single train or four trains separated by 5 min intervals. A short train consisted of 5 stimuli (100 Hz within-burst). When indicated, ACSF was supplemented with anisomycin (Calbiochem, Calif.), PKRi (Calbiochem, Calif.), bicuculline (Tocris) or diazepam (Sigma-Aldrich). It should be noted that the inventors used bicuculline free base which only blocks GABAA receptor rather than bicuculline-M (bicuculline methiodide, methobromide or methochloride) which in addition to GABAA receptor also blocks small conductance (SK) calcium-activated potassium channels (Debarbieux et al., 1998). […] To reduce day-to-day variations, whenever possible simultaneous recordings (in the same chamber) were obtained from slices from Pkr^−/− mice and WT littermates treated with drugs or vehicle. Statistical analysis was performed using t-test and two-way ANOVA. All data are presented as means±SEM and “n” indicates the number of slices.

[6] = system: CA1 neurons in WT hippocampal slices; type: cell-based, mouse
[7] = system: hippocampal slices from Pkr−/− mice; assay: Field recording (population spikes) in CA1 of hippocampal slices; type: cell-based, mouse; conditions: PKRi
Experimental: Field recording: horizontal hippocampal slices ([…]) were cut from brains of WT or age-matched Pkr^−/− littermates in 4° C. artificial cerebrospinal fluid (ACSF) and kept in ACSF at room temperature for at least one hr before recording, as described (Zhu et al., 2005). Slices were maintained in an interface-type chamber perfused with oxygenated ACSF (95% O2 and 5% CO2) containing in mM: 124 NaCl, 2.0 KCl, 1.3 MgSO4, 2.5 CaCl2, 1.2 KH2PO4, 25 NaHCO3, and 10 glucose (2-3 ml/min). Bipolar stimulating electrodes were placed in the CA1 stratum radiatum to stimulate Schaffer collateral and commissural fibers. Field potentials were recorded using ACSF-filled micropipettes at 28-29° C. The recording electrodes were placed in the stratum radiatum for field excitatory postsynaptic potentials (fEPSPs), and stratum pyramidale for population spikes. The stimulus strength of the 0.1 ms pulses was adjusted to evoke 30-35% of maximum response for fEPSPs, and 50% of maximal response for population spikes. A stable baseline of responses was established for at least 30 min at 0.033 Hz. Tetanic LTP was induced by high-frequency stimulation in brief trains (100 Hz, 1 s), applied either as a single train or four trains separated by 5 min intervals. A short train consisted of 5 stimuli (100 Hz within-burst). […]

[8] = system: CA1 neurons in Pkr−/− hippocampal slices; assay: Whole-cell patch clamp recording of synaptic currents; type: cell-based, mouse; conditions: PKRi
[9] = system: Pkr−/− hippocampal slices; type: cell-based, mouse
Experimental: (§1) Field recording: horizontal hippocampal slices ([…]) were cut from brains of WT or age-matched Pkr^−/− littermates in 4° C. artificial cerebrospinal fluid (ACSF) and kept in ACSF at room temperature for at least one hr before recording, as described (Zhu et al., 2005). Slices were maintained in an interface-type chamber perfused with oxygenated ACSF (95% O2 and 5% CO2) containing in mM: 124 NaCl, 2.0 KCl, 1.3 MgSO4, 2.5 CaCl2, 1.2 KH2PO4, 25 NaHCO3, and 10 glucose (2-3 ml/min). Bipolar stimulating electrodes were placed in the CA1 stratum radiatum to stimulate Schaffer collateral and commissural fibers. Field potentials were recorded using ACSF-filled micropipettes at 28-29° C. The recording electrodes were placed in the stratum radiatum for field excitatory postsynaptic potentials (fEPSPs), and stratum pyramidale for population spikes. The stimulus strength of the 0.1 ms pulses was adjusted to evoke 30-35% of maximum response for fEPSPs, and 50% of maximal response for population spikes. A stable baseline of responses was established for at least 30 min at 0.033 Hz. Tetanic LTP was induced by high-frequency stimulation in brief trains (100 Hz, 1 s), applied either as a single train or four trains separated by 5 min intervals. A short train consisted of 5 stimuli (100 Hz within-burst). When indicated, ACSF was supplemented with anisomycin (Calbiochem, Calif.), PKRi (Calbiochem, Calif.), bicuculline (Tocris) or diazepam (Sigma-Aldrich). It should be noted that the inventors used bicuculline free base which only blocks GABAA receptor rather than bicuculline-M (bicuculline methiodide, methobromide or methochloride) which in addition to GABAA receptor also blocks small conductance (SK) calcium-activated potassium channels (Debarbieux et al., 1998). […] To reduce day-to-day variations, whenever possible simultaneous recordings (in the same chamber) were obtained from slices from Pkr^−/− mice and WT littermates treated with drugs or vehicle. Statistical analysis was performed using t-test and two-way ANOVA. […]

[10] = molecular target: T1, PKR; conditions: Jammi et al., 2003; Shimazawa and Hara, 2006; cited from earlier work
[11] = system: WT hippocampal slices; assay: Tetanic LTP (E-LTP/L-LTP) in hippocampal slices; type: cell-based, mouse
Experimental: as §1

[12] = PKRi 1 μM, −60 mV, kynurenic acid
[13] = PKRi 1 μM, −60 mV, kynurenic acid 2 mM, TTX 1 μM

T1 sequence (P19525 whole entry): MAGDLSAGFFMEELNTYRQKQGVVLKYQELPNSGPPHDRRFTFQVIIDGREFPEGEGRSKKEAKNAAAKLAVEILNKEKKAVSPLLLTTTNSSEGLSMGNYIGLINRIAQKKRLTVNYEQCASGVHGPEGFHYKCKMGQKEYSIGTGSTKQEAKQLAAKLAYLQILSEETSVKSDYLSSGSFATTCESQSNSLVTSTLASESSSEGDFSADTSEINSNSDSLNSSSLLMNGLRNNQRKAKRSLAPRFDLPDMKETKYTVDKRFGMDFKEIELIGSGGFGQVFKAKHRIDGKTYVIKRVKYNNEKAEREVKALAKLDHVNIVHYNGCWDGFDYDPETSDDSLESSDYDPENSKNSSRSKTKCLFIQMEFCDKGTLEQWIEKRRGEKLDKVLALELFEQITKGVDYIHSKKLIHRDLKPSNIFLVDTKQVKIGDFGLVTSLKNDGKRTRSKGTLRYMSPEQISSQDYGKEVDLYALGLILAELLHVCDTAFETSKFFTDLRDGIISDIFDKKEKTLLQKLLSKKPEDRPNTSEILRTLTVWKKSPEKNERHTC

## O=C1Nc2ccc3ncsc3c2/C1=C/c1cnc[nH]1 [PKRi]
[1]
  PKR activity ex-vivo: known to block PKR activity ex-vivo
[2]
  PKR activity in the hippocampus in vivo: known to block PKR activity in the hippocampus in vivo
[3]
  Auditory fear memory (freezing 24 hr after training): enhanced
  Contextual fear memory (freezing 24 hr after training): enhanced
[4]; PKRi 0.1 mg/kg i.p., recorded one hour after injection, absent in all WT controls (n=6), p<0.01
  Abnormal EEG activity present (mice affected): 6 out of 7
[4]; PKRi 0.1 mg/kg, adult WT mice
  Cortical EEG activity: induces acute spiking (d) and rhythmic bursts (e)
[5]; 5 pulses at 100 Hz
  Decrease of CA1 population spike amplitude during short high frequency train (cumulative inhibition): minimal or no high-frequency stimulation-induced decrease in spike amplitude
[5]; PKRi 1 μM, bicuculline 2 μM
  Duration of burst: increased
  Number of evoked spikes: increased
[5]; PKRi 1 μM, in presence of bicuculline 2 μM, half-maximal stimulation at 0.03 Hz
  After-discharges after a single stimulus: pronounced after-discharges
[5]; PKRi 1 μM, single stimulus
  Initial slope of EPSPs: did not alter
  Presynaptic afferent volley: did not alter
[5]; PKRi 1 μM, single stimulus, WT slices
  Amplitude of population spikes: enhanced
[5]; WT slices pre-treated with the GABAA antagonist bicuculline
  Population spikes (firing) in slices pre-treated with bicuculline: no further enhancement of firing
[6]; PKRi 1 μM bath application, picrotoxin 100 μM, −70 mV
  Evoked EPSCs: no effect
[6]; [12]
  Amplitude of sIPSCs: not amplitude
  Frequency of sIPSCs: decreases
[6]; [13]
  Amplitude of mIPSCs: but not their amplitude
  Frequency of mIPSCs: decreased
[6]; PKRi bath-application, 50 μM APV, 10 μM CNQX, 10 μM CGP55845, 0 mV, half-maximal stimulation
  Amplitude of pharmacologically isolated monosynaptic eIPSCs: reduced
[6]; PKRi, holding potential 0 mV, half-maximal stimulation
  Electrically isolated eIPSCs: Reduced
[6]; WT slices treated with PKRi
  Amplitude or frequency of sEPSCs, mEPSCs or eEPSCs: not significantly changed
  mIPSCs Rise Time 10%-90%: 1.36 ± 0.07 ms
  mIPSCs τW: 21.28 ± 1.24 ms
  sIPSCs Rise Time 10%-90%: 1.68 ± 0.18 ms
  sIPSCs τW: 22.89 ± 0.78 ms
[6]; at 50 ms inter-stimulus interval
  Paired-pulse depression of IPSCs (IPSC2/IPSC1): reduced
[7]
  Population spikes: no effect
[8]
  Amplitude of evoked IPSCs: did not alter
[9]; PKRi, Pkr−/− slices
  LTP elicited by a single 100 Hz train (1 s): did not further potentiate LTP
[10]
  PKR autophosphorylation: blocks
[11]; PKRi 1 μM, WT slices, at 220 min p<0.001
  LTP after a single high frequency train (100 Hz for 1 s): converts E-LTP into L-LTP

## CN1C(=O)CN=C(c2ccccc2)c2cc(Cl)ccc21 [diazepam]
[9]
  L-LTP after a single train: prevented the induction of L-LTP
[11]
  L-LTP induction by four trains at 100 Hz: blocked L-LTP induction
[11]; low concentration of diazepam (11 μM), WT slices
  L-LTP induced by four tetanic trains: no effect

## COc1ccc(C[C@H]2NC[C@H](O)[C@H]2OC(C)=O)cc1 [anisomycin]
[9]; anisomycin, Pkr−/− slices, at 220 min p<0.01
  Facilitated L-LTP after a single train: suppressed
